Results as given in publication PMC11834790, “Pyridine indole hybrids as novel potent CYP17A1 inhibitors” (Journal of Enzyme Inhibition and Medicinal Chemistry, 2025).
Several values for one entry are separate records, joined by “and”; a condition that tells them apart may be missing. Identical values can stand only once.

Columns and labels:
[1] = target: T1, CYP17A1 (Homo sapiens, UniProt P05093); experiment: CYP17A1 17,20-lyase activity assay in NCI-H295R cells (tritiated water release); format: cell-based; conditions: 4 h, DMSO = 100, read-out: CYP17A1 Lyase activity, Mean (percentage of activity remaining relative to the control)
T1 construct: immortalised human adrenal cells expressing CYP17A1 and other steroidogenic enzymes; endogenous in cells; host or cells: NCI-H295R (human adrenal cells)
T1 sequence (P05093 1-508): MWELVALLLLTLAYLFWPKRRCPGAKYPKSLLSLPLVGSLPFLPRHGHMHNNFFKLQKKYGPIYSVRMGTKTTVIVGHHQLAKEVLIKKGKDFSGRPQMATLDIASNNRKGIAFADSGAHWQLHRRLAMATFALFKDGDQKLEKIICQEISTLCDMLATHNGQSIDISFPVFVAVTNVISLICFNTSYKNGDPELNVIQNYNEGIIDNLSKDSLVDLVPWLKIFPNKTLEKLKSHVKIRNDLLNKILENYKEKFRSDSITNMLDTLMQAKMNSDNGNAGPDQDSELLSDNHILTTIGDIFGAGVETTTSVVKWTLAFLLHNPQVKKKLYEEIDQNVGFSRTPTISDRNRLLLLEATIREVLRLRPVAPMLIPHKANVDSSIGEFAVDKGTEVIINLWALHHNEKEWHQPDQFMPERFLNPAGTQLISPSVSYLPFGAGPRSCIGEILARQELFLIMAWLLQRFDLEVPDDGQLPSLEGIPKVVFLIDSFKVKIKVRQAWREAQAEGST
Protocol: (§1) Human adrenal NCI-H295R cells are an established model for assay of CYP17A1 activities. The NCI-H295R cells were seeded in 12-well plates at 500 000 cells per well and incubated overnight. On the following day, 10 µM of test compounds were added to the wells with fresh medium and incubated for 4 h. Abiraterone was used as a reference, and DMSO was included as a control. For assessing CYP17A1 hydroxylase activity, cells were treated with [^14C]-Progesterone at 10 000 cpm/1 µM per well. Trilostane was added prior to the test compounds and substrate to inhibit 3β-hydroxysteroid dehydrogenase activity so that a clean assay of only CYP17A1 activity could be performed[20]^,[27]^,[28]. Radiolabeled steroids were extracted from the media using a mixture of ethyl acetate and isooctane (1:1 v/v) and separated by Thin Layer Chromatography (TLC) on silica gel-coated aluminium plates (Supelco® Analytics, Sigma-Aldrich Chemie GmbH, Taufkirchen, Germany). TLC spots were visualised on a phosphor screen and detected by autoradiography using a Typhoon™ FLA-7000 PhosphorImager (GE Healthcare, Uppsala, Sweden). Radioactivity was quantified with ImageQuant™ TL analysis software (GE Healthcare Europe GmbH, Freiburg, Germany), and enzyme activity was expressed as the percentage of radioactivity incorporated into the product relative to the total radioactivity. For CYP17A1 lyase activity, cells were exposed to 50 000 cpm/1 µM [21-^3H]-17α-hydroxypregnenolone per well under similar conditions. The tritiated water release assay was used to measure the conversion of 17OH-Pregnenolone to DHEA. Steroids in the media were precipitated using a 5% activated charcoal/0.5% dextran solution. Enzyme activity was evaluated based on the water-soluble tritiated by-product formed in equimolar amounts with DHEA, with radioactivity in the aqueous phase quantified by liquid scintillation counting (MicroBeta2® Plate Counter, PerkinElmer Inc., Waltham, MA, USA). Percent inhibition was calculated relative to control samples.

[2] = target: T1, CYP17A1; experiment: CYP17A1 17α-hydroxylase activity assay in NCI-H295R cells ([14C]-progesterone, TLC); format: cell-based; conditions: 4 h, DMSO = 100, read-out: CYP17A1 Hydroxylase activity, Mean (percentage of activity remaining relative to the control)
Protocol: as §1

[3] = tested on: VCaP cells; experiment: Alamar blue (resazurin) cell viability, VCaP; format: cell-based, human
Protocol: (§2) LNCaP and RWPE-1 cells were plated in 96-well plates at 10 000 cells per well and incubated overnight at 37 °C with 5% CO2. VCaP cells were plated at 12 000 cells per well under the same conditions. After 24 h, the medium was replaced with fresh medium containing the compounds or abiraterone at a final concentration of 10 µM. Cells were incubated for an additional 24 and 48 h. Cell viability was measured using the Alamar Blue assay. Post-incubation, 0.05 mg/mL Alamar Blue solution in phosphate-buffered saline (PBS) was added to each well. The plates were incubated in the dark at 37 °C for 4 h, and fluorescence was measured at an excitation wavelength of 550 nm and an emission wavelength of 590 nm. Cell viability was calculated relative to control sample treated with DMSO. All experiments were conducted in triplicate.

[4] = tested on: LNCaP cells; experiment: Alamar blue (resazurin) cell viability, LNCaP; format: cell-based, human; conditions: 10 µM; for Cytotoxic effect on LNCaP cells (in words): 24 and 48 h
Protocol: as §2

[5] = target: T1, CYP17A1; experiment: CYP17A1 activity calculated as ratios of steroid products to substrates (LC-MS); format: cell-based; conditions: normalised to DMSO-treated cells (100%), NCI-H295R
Protocol: (§3) Steroid quantification was performed using Liquid Chromatography–Mass Spectrometry (LC-MS), following established protocols to study effect of compounds on adrenal steroidogenesis. Human adrenal NCI-H295R cells were seeded in 12-well plates at 500 000 cells per well and treated with fresh growth medium containing the test compounds for 4 h. Subsequently, 1 µM pregnenolone was added and incubated for an additional 4 h. Steroids were extracted from 500 µL aliquots of cell media, separated, and quantified according to the referenced methodology.
To provide deeper insights into CYP17A1 inhibition, the enzyme activity was calculated using ratios of steroid products to substrates, focusing on dual activities of CYP17A1 (Figure 4(B)).

[6] = target: T1, CYP17A1; experiment: CYP17A1 17,20-lyase activity assay in NCI-H295R cells (tritiated water release); format: cell-based; conditions: dose-response, read-out: IC50, inhibition of 17,20-lyase activity
[7] = tested on: adrenal steroidogenesis in NCI-H295R cells; experiment: Steroid profiling by LC-MS in NCI-H295R cells; format: cell-based, human; conditions: for Androsterone, Mean / Testosterone, Mean / Progesterone, Mean / Androstendione, Mean / 17a-Hydroxyprogesterone, Mean / DHEA, Mean / 11-Deoxycortisol, Mean / 11-Deoxycorticosterone, Mean / Pregnenolone, Mean / Cortisone, Mean / DHEA-S, Mean / Dihydrotestosterone, Mean: compounds at 10 µM; for Androsterone, Mean / Testosterone, Mean / Progesterone, Mean / Androstendione, Mean / 17a-Hydroxyprogesterone, Mean / DHEA, Mean / 11-Deoxycortisol, Mean / 11-Deoxycorticosterone, Mean / Pregnenolone, Mean: 1 µM pregnenolone; for Androsterone, Mean / Cortisone, Mean / DHEA-S, Mean / Dihydrotestosterone, Mean: DMSO 0; for Testosterone, Mean: DMSO 0.4785; for Progesterone, Mean: DMSO 4.814; for Androstendione, Mean: DMSO 7.577; for 17a-Hydroxyprogesterone, Mean: DMSO 9.967; for DHEA, Mean: DMSO 15.119; for 11-Deoxycortisol, Mean: DMSO 26.594; for 11-Deoxycorticosterone, Mean: DMSO 28.1555; for Pregnenolone, Mean: DMSO 2043.56; for Cortisone, Mean / DHEA-S, Mean / Dihydrotestosterone, Mean: not detected within the experimental timeframe
Protocol: as §3

[8] = tested on: DU-145 cells; experiment: Scratch (wound healing) assay; format: cell-based, human; conditions: DU-145, 10 µM; for Wound area, Mean (area remaining open): 24 h, DMSO 170.5; for Effect on cell migration (in words): after 24 h
Protocol: Human prostate cancer DU-145 cells show strong cell proliferation and therefore, are an established model for assay of antiproliferative effects of test compounds. DU-145 cells were plated in 24-well plates at 50 000 cells per well and grown until they reached 85% confluence. To inhibit cell proliferation, cells were treated with 5 µg/mL mitomycin for 2 h. A wound was created using a 10 µL pipette tip. The cells were then exposed to drugs at a concentration of 10 µM, while control wells received DMSO. Wound closure was observed and photographed using an optical microscope after 24 h. Images were analysed using ImageJ software (version 1.54j).

N#Cc1c(-c2ccccc2)cc(-c2ccncc2)c(C#N)c1N [Compound 6, 3-Amino-5-(pyridin-4-yl)-[1,1′-biphenyl]-2,4-dicarbonitrile]
remaining activity at 10 µM [1]: 57.4%
remaining activity at 10 µM [2]: 53%
viability at 10 µM ([3]; Homo sapiens, VCaP, 24 h): < 50%
Cytotoxic effect on LNCaP cells (in words) [4]: marked reduction in viability

CCCn1nnc2cc(-c3cc(-c4ccncc4)c(C#N)c(N)n3)ccc21 [Compound 1, 2-Amino-6–(1-propyl-1H-benzo[d][1,2,3]triazol-5-yl)-[4,4′-bipyridine]-3-carbonitrile]
17α-Hydroxylase activity (ratios of steroid products to substrates) [5]: 1.8%
Combined 17α-hydroxylase and 17,20-lyase activity (ratios of steroid products to substrates) [5]: 6.6%
remaining activity at 10 µM [1]: 46.3%
IC50 [6]: 10 nM
remaining activity at 10 µM [2]: 45%
Androsterone, Mean [7]: 0 nmol/L
Testosterone, Mean [7]: 0.4455 nmol/L
Progesterone, Mean [7]: 27.8235 nmol/L
Androstendione, Mean [7]: 1.564 nmol/L
17a-Hydroxyprogesterone, Mean [7]: 0.977 nmol/L
DHEA, Mean [7]: 1.1015 nmol/L
11-Deoxycortisol, Mean [7]: 5.22 nmol/L
11-Deoxycorticosterone, Mean [7]: 41.58 nmol/L and 41.577 nmol/L
Pregnenolone, Mean [7]: 2228.179 nmol/L
Cortisone, Mean [7]: 0 nmol/L
DHEA-S, Mean [7]: 0 nmol/L
Dihydrotestosterone, Mean [7]: 0 nmol/L
Wound area, Mean (area remaining open) [8]: 731.5 Pixels^2
Effect on cell migration (in words) [8]: less pronounced effect comparable to that exerted by abiraterone

c1cc(-c2ccncc2)cc(-c2ccc3[nH]ccc3c2)c1 [Compound 14, 5-(3-(Pyridin-4-yl)phenyl)-1H-indole]
17α-Hydroxylase activity (ratios of steroid products to substrates) [5]: 1.5%
remaining activity at 10 µM [1]: 23.9%
IC50 [6]: 26 nM
remaining activity at 10 µM [2]: 35%
Androsterone, Mean [7]: 0.61 nmol/L
Testosterone, Mean [7]: 0.4105 nmol/L
Progesterone, Mean [7]: 51.7765 nmol/L
Androstendione, Mean [7]: 1.359 nmol/L
17a-Hydroxyprogesterone, Mean [7]: 1.6245 nmol/L
DHEA, Mean [7]: 0.6075 nmol/L
11-Deoxycortisol, Mean [7]: 3.75 nmol/L and 3.7485 nmol/L
11-Deoxycorticosterone, Mean [7]: 3.518 nmol/L
Pregnenolone, Mean [7]: 2377.463 nmol/L
Cortisone, Mean [7]: 0 nmol/L
DHEA-S, Mean [7]: 0 nmol/L
Dihydrotestosterone, Mean [7]: 0 nmol/L
Wound area, Mean (area remaining open) [8]: 7074 Pixels^2
Effect on cell migration (in words) [8]: significant inhibition of cell migration
Effect on LNCaP cell viability (in words) ([4]; 48 h): strong effect

N#Cc1c(-c2ccncc2)cc(-c2ccc3[nH]ccc3c2)c(C#N)c1N [Compound 11, 2-Amino-4-(1H-indol-5-yl)-6-(pyridin-4-yl)isophthalonitrile]
17α-Hydroxylase activity (ratios of steroid products to substrates) [5]: 1%
remaining activity at 10 µM [1]: 49.2%
IC50 [6]: 4 nM
remaining activity at 10 µM [2]: 10%
Androsterone, Mean [7]: 1.176 nmol/L
Testosterone, Mean [7]: 0.4775 nmol/L
Progesterone, Mean [7]: 67.3265 nmol/L
Androstendione, Mean [7]: 1.3725 nmol/L
17a-Hydroxyprogesterone, Mean [7]: 1.3575 nmol/L
DHEA, Mean [7]: 1.36 nmol/L and 1.3585 nmol/L
11-Deoxycortisol, Mean [7]: 3.942 nmol/L
11-Deoxycorticosterone, Mean [7]: 3.8565 nmol/L
Pregnenolone, Mean [7]: 2465.505 nmol/L
Cortisone, Mean [7]: 0 nmol/L
DHEA-S, Mean [7]: 0 nmol/L
Dihydrotestosterone, Mean [7]: 0 nmol/L
Reduction of DHEA level ([7]; vs DMSO control): 11 fold
Cytotoxic effect on VCaP cells (in words) ([3]; 10 µM, 24 and 48 h): did not exhibit high cytotoxic effects
Wound area, Mean (area remaining open) [8]: 8703 Pixels^2
Effect on cell migration (in words) [8]: significant inhibition of cell migration
Cytotoxic effect on LNCaP cells (in words) [4]: did not exhibit high cytotoxic effects
